Reference: ChEMBL document CHEMBL1201862, “PubChem BioAssay data set” (2004)
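1) Cells in 96-well plates. 2) Compound, 48 h, 5 concentrations. 3) Linear interpolation between surrounding doses. 4) Unreached endpoint = highest concentration. GI50 = concentration required for 50% inhibition of growth.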 Active and inactive are the calls of the source. No stated cut-off is given here; in the data, active = GI50 up to about 1.1 µM and inactive = higher.

Key:
Assay in all cases: growth of human tumour cells (NCI), 48 h
SK-MEL-5 = system: SK-MEL-5
EKVX = system: EKVX
OVCAR-4 = system: OVCAR-4
SK-MEL-28 = system: SK-MEL-28
U-251 = system: U-251
HOP-62 = system: HOP-62
NCI-H522 = system: NCI-H522
HOP-18 = system: HOP-18
HCC 2998 = system: HCC 2998
M14 = system: M14
TK-10 = system: TK-10
LXFL 529 = system: LXFL 529
HT-29 = system: HT-29
CCRF-CEM = system: CCRF-CEM
MCF7 = system: MCF7
ACHN = system: ACHN
KM-20L2 = system: KM-20L2
COLO 205 = system: COLO 205
T47D = system: T47D
SK-OV-3 = system: SK-OV-3
UO-31 = system: UO-31
Hs-578T = system: Hs-578T
LOX IMVI = system: LOX IMVI
A498 = system: A498
RXF 393 = system: RXF 393
Malme-3M = system: Malme-3M
MDA-MB-435 = system: MDA-MB-435
MDA-N = system: MDA-N
SF-268 = system: SF-268
OVCAR-5 = system: OVCAR-5
BT-549 = system: BT-549
SR = system: SR
SF-295 = system: SF-295
SNB-19 = system: SNB-19
MDA-MB-231 = system: MDA-MB-231
NCI/ADR-RES = system: NCI/ADR-RES
SN12C = system: SN12C
NCI-H460 = system: NCI-H460
786-0 = system: 786-0
SNB-78 = system: SNB-78
NCI-H226 = system: NCI-H226
A549 = system: A549
DMS-273 = system: DMS-273
UACC-62 = system: UACC-62
SW-620 = system: SW-620
UACC-257 = system: UACC-257
OVCAR-3 = system: OVCAR-3
PC-3 = system: PC-3
MOLT-4 = system: MOLT-4
HCT-15 = system: HCT-15
KM12 = system: KM12
OVCAR-8 = system: OVCAR-8
SNB-75 = system: SNB-75
RPMI-8226 = system: RPMI-8226
DU-145 = system: DU-145
NCI-H23 = system: NCI-H23
CAKI-1 = system: CAKI-1
SF-539 = system: SF-539
HCT-116 = system: HCT-116
XF498 = system: XF498
IGROV-1 = system: IGROV-1
HOP-92 = system: HOP-92
M19-MEL = system: M19-MEL
HL-60 = system: HL-60
DMS-114 = system: DMS-114
K562 = system: K562
SK-MEL-2 = system: SK-MEL-2

Structure (SMILES): COc1ccc(C2=C(Cl)c3cc(OC)c(OC)cc3C2Cl)cc1 (configuration not stated)
- GI50 (SK-MEL-5): 13.7 µM (inactive)
- GI50 (EKVX): 16.9 µM (inactive)
- GI50 (OVCAR-4): 13.6 µM (inactive)
- GI50 (SK-MEL-28): 16 µM (inactive)
- GI50 (U-251): 13.7 µM (inactive)
- GI50 (HOP-62): 17.8 µM (inactive)
- GI50 (NCI-H522): 12.5 µM (inactive)
- GI50 (HOP-18): 20.3 µM (inactive)
- GI50 (HCC 2998): 14.3 µM (inactive)
- GI50 (M14): 17.2 µM (inactive)
- GI50 (TK-10): 19.7 µM (inactive)
- GI50 (LXFL 529): 13.2 µM (inactive)
- GI50 (HT-29): 14.8 µM (inactive)
- GI50 (CCRF-CEM): 2.84 µM (inactive)
- GI50 (MCF7): 10.5 µM (inactive)
- GI50 (ACHN): 13.9 µM (inactive)
- GI50 (KM-20L2): 15.9 µM (inactive)
- GI50 (COLO 205): 17.5 µM (inactive)
- GI50 (T47D): 13.3 µM (inactive)
- GI50 (SK-OV-3): 13.6 µM (inactive)
- GI50 (UO-31): 6.55 µM (inactive)
- GI50 (Hs-578T): 17.3 µM (inactive)
- GI50 (LOX IMVI): 12.2 µM (inactive)
- GI50 (A498): 13.2 µM (inactive)
- GI50 (RXF 393): 14.5 µM (inactive)
- GI50 (Malme-3M): 19.1 µM (inactive)
- GI50 (MDA-MB-435): 12.3 µM (inactive)
- GI50 (MDA-N): 10.1 µM (inactive)
- GI50 (SF-268): 16 µM (inactive)
- GI50 (OVCAR-5): 15.5 µM (inactive)
- GI50 (BT-549): 3.78 µM (inactive)
- GI50 (SR): 3.27 µM (inactive)
- GI50 (SF-295): 15.4 µM (inactive)
- GI50 (SNB-19): 18.7 µM (inactive)
- GI50 (MDA-MB-231): 17.7 µM (inactive)
- GI50 (NCI/ADR-RES): 12.7 µM (inactive)
- GI50 (SN12C): 13.5 µM (inactive)
- GI50 (NCI-H460): 9.71 µM (inactive)
- GI50 (786-0): 12.2 µM (inactive)
- GI50 (SNB-78): 17.9 µM (inactive)
- GI50 (NCI-H226): 21.3 µM (inactive)
- GI50 (A549): 15.4 µM (inactive)
- GI50 (DMS-273): 17.2 µM (inactive)
- GI50 (UACC-62): 14.6 µM (inactive)
- GI50 (SW-620): 15.3 µM (inactive)
- GI50 (UACC-257): 17.1 µM (inactive)
- GI50 (OVCAR-3): 16.8 µM (inactive)
- GI50 (PC-3): 12.8 µM (inactive)
- GI50 (MOLT-4): 4.34 µM (inactive)
- GI50 (HCT-15): 12.3 µM
- GI50 (KM12): 13.6 µM (inactive)
- GI50 (OVCAR-8): 16.5 µM (inactive)
- GI50 (SNB-75): 0.499 µM (active)
- GI50 (RPMI-8226): 8.17 µM (inactive)
- GI50 (DU-145): 17.9 µM (inactive)
- GI50 (NCI-H23): > 37.4 µM (inactive)
- GI50 (CAKI-1): 15.4 µM (inactive)
- GI50 (SF-539): 15.3 µM (inactive)
- GI50 (HCT-116): 14.2 µM (inactive)
- GI50 (XF498): < 0.01 µM (active)
- GI50 (IGROV-1): 17.4 µM (inactive)
- GI50 (HOP-92): 12.2 µM (inactive)
- GI50 (M19-MEL): 18.2 µM (inactive)
- GI50 (HL-60): 3.03 µM (inactive)
- GI50 (DMS-114): 14.1 µM (inactive)
- GI50 (K562): 5.24 µM (inactive)
- GI50 (SK-MEL-2): 12.1 µM (inactive)
